This is an account of results in US20220306695A1, “COMPSTATIN ANALOGUES AND THEIR MEDICAL USES” (priority 2019, published 2022).

pKd: −log10 of the molar value. Where two headings read alike, the source gives them in different places. Starred links: 1 amine or outer side, 2 acyl side, 3 side chain; linkers in the order of their positions; H or OH if unused. Positions of bridges follow the written chain, without caps; N, C: chain ends. Non-standard residues stand in square brackets, D forms with d. Residues, ends and D or L forms follow the SMILES beside them. Groups on a side chain read outwards from the residue. *: point of attachment. Trp(1-Me) = Cn1cc(C[C@H](N)C(=O)O)c2ccccc21; C18 diacid = O=C(O)CCCCCCCCCCCCCCCCC(=O)*; γGlu = O=C(O)[C@H](CCC(=O)[*:2])N[*:1]; AEEA = NCCOCCOCC(=O)O; Sar = CNCC(=O)O Where only a bound is given, the exact number is not on record here.

The subject of series [1] is classical complement pathway. The series is described as follows: In vitro haemolysis assay (inhibition of classical complement pathway). Particulars: Table 3; human serum, sensitized sheep red blood cells; read-out: IC50[nM], in vitro analysis of inhibition of hemolysis. Format: cell-based, human. Put shortly: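 Serially diluted compound (9 points) was preincubated 15 min at room temperature with diluted human serum, titrated per batch to give 70-90% maximal haemolysis, in Tris/casein buffer pH 7.4 with Mg2+/Ca2+. Antibody-sensitized sheep erythrocytes were then added for 30 min at 37° C, and the reaction was stopped with EDTA. Haemolysis was read at A405, with IC50 from 4PL fit.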

Series [2] deals with T1, Human C3 (Homo sapiens, UniProt P01024).
T1 construct: purchased Complement tech A1 13c (so in the source)
The series is described as follows: Affinity measurement by surface plasmon resonance (SPR) with immobilized C3. It counts as binding. As to conditions: Table 7; immobilized C3, 25° C., pH 7.4.

Series [3] is described as follows: in vivo. Further details: species or system Cynomolgus monkeys (Macaca fascicularis). As to conditions: male, cynomolgus monkey, sc, 1840 nmol/kg, t½. Put shortly: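 Healthy male cynomolgus monkeys dosed once subcutaneously at 1840 nmol/kg in 20 mM phosphate pH 7.5 with mannitol. Serum sampled pre-dose to 120 h and total drug measured by SPE and LC-MS/MS. Terminal half-life calculated non-compartmentally as ln(2)/λz from the terminal log-linear phase.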

Series [4] is described as follows: Solubility test at 10 mg/mL (visual inspection and light scattering). It counts as physicochemical.
Series [5] is classed as physicochemical. As to conditions: 50 mg/mL peptide. Put shortly:
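Compstatin analogues with cystathionine or disulfide bridge held at 50 mg/mL in 20 mM phosphate pH 5.5, 6.5 or 7.5 and stored 14 days at 40 °C. At 0, 7 and 14 days, samples diluted to 2 mg/mL; purity by reverse-phase HPLC (220 nm) and covalent oligomer content by denaturing SEC (215 nm), from integrated chromatograms.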

The IC50 is the concentration needed to halve the response being measured. Broadly, the pKd is −log10 of the Kd, conventionally taken in molar units. High values mean a small Kd, low ones a large Kd. Usually half-life stands for the time in which the quantity being followed falls by half. Read a high half-life as slow decline. For `CC[C@H](C)[C@@H]1NC(=O)[C@@H](NC(=O)[C@H](Cc2ccc(O)cc2)NC(=O)[C@H](C)NC(=O)[C@H](CO)NC(C)=O)CSSC[C@@H](C(=O)N(C)CC(=O)N[C@@H](CCC(=O)O)C(=O)N[C@@H](CCCCNC(=O)CC[C@H](NC(=O)CNC(=O)CC[C@H](NC(=O)CCCCCCCCCCCCCCCCC(=O)O)C(=O)O)C(=O)O)C(N)=O)NC(=O)[C@H](CCCNC(=N)N)NC(=O)[C@H](Cc2c[nH]cn2)NC(=O)[C@H](CCC(=O)O)NC(=O)CNC(=O)[C@H](Cc2c[nH]c3ccccc23)NC(=O)[C@H](CC(=O)O)NC(=O)[C@H](CCC(N)=O)NC(=O)[C@H](Cc2cn(C)c3ccccc23)NC1=O` [Compound 106] (Ac-SAYCI[Trp(1-Me)]QDWGEHRC[Sar]EK([γGlu-Gly-γGlu-C18 diacid])-NH2; disulfide 4-14), in series [1], the half-maximal inhibitory concentration (IC50) was under 250 nM. In series [2], this compound showed a pKd of 8.27. Besides, in series [3], the half-life was 93.9 h.
With `CC[C@H](C)[C@@H]1NC(=O)[C@@H](NC(=O)[C@H](Cc2ccc(O)cc2)NC(=O)[C@H](C)NC(=O)[C@H](CO)NC(=O)CNC(=O)[C@H](CCC(=O)O)NC(C)=O)CSSC[C@@H](C(=O)N(C)CC(=O)N[C@@H](CCC(=O)O)C(=O)N[C@@H](CCCCN)C(=O)N[C@@H](CCC(=O)N[C@@H](CCCCNC(=O)COCCOCCNC(=O)COCCOCCNC(=O)CC[C@H](NC(=O)CCCCCCCCCCCCCCCCC(=O)O)C(=O)O)C(N)=O)C(=O)O)NC(=O)[C@H](CCCNC(=N)N)NC(=O)[C@H](Cc2c[nH]cn2)NC(=O)[C@H](CCC(=O)O)NC(=O)CNC(=O)[C@H](Cc2c[nH]c3ccccc23)NC(=O)[C@H](CC(=O)O)NC(=O)[C@H](CCC(N)=O)NC(=O)[C@H](Cc2cn(C)c3ccccc23)NC1=O` [Compound 111] (Ac-EGSAYCI[Trp(1-Me)]QDWGEHRC[Sar]EK[γGlu]K([AEEA-AEEA-γGlu-C18 diacid])-NH2; disulfide 6-16), the 50% inhibitory concentration (IC50) in series [1] was under 100 nM. Also, the “Solubility, Condition 1 Acetate pH 4” value in series [4] (10 mg/mL compound in 100 mM acetate pH 4) is “− (denotes lack of solubility at the given condition, as UV absorbance at 340 nm exceeds 0.1 AU and/or it is visibly turbid or contains particles.)”. In addition, the “Solubility, Condition 2 Acetate pH 5” value in series [4] (10 mg/mL compound in 100 mM acetate pH 5) is listed as “− (denotes lack of solubility at the given condition, as UV absorbance at 340 nm exceeds 0.1 AU and/or it is visibly turbid or contains particles.)”. For the same compound, the “Solubility, Condition 3 Phosphate pH 6” value in series [4] (10 mg/mL compound in 100 mM phosphate pH 6) was “+ (denotes solubility at the given condition, as determined by UV absorbance being less than 0.1 AU at 340 nm and the sample being clear when manually inspected.)”. For the same compound, in series [4] (10 mg/mL compound in 100 mM phosphate pH 7), the “Solubility, Condition 4 Phosphate pH 7” value is “+ (denotes solubility at the given condition, as determined by UV absorbance being less than 0.1 AU at 340 nm and the sample being clear when manually inspected.)”. In addition, the “Solubility, Condition 5 Phosphate pH 7.5” value in series [4] (10 mg/mL compound in 100 mM phosphate pH 7.5) is “+ (denotes solubility at the given condition, as determined by UV absorbance being less than 0.1 AU at 340 nm and the sample being clear when manually inspected.)”. Further, the half-life in series [3] is 157 h. Moreover, the “Covalent oligomer content after 14 days 40° C. (%), F1” value in series [5] (F1: 20 mM phosphate pH 5.5, denaturing SEC) is reported as 30%. For the same compound, the “Purity after 14 days 40° C. (%), F1” value in series [5] (F1: 20 mM phosphate pH 5.5, normalized purity (HPLC)) is reported as 80%. For the same compound, the “Covalent oligomer content after 14 days 40° C. (%), F2” value was determined as 77% in series [5] (F2: 20 mM phosphate pH 6.5, denaturing SEC) and 61% in series [5] (F3: 20 mM phosphate pH 7.5, denaturing SEC). Besides, the “Purity after 14 days 40° C. (%), F2” value in series [5] (F2: 20 mM phosphate pH 6.5, normalized purity (HPLC)) is reported as 24%. In series [5] (F3: 20 mM phosphate pH 7.5, normalized purity (HPLC)), the “Purity after 14 days 40° C. (%), F3” value is on record as 33%.
